Test results: ChEMBL document CHEMBL4043185, “Discovery of non-zwitterionic aryl sulfonamides as Nav1.7 inhibitors with efficacy in preclinical behavioral models and translational measures of nociceptive neuron activation” (Bioorg Med Chem, 2017); call rule not given here
Blank lines part the entries; values can stand above or below the compound they belong to.

Experiments:
physchem [1] = details: PAMPA, pH 7.4
physchem [2] = details: PAMPA, pH 5.5
[3] = Ratio of drug level in brain to plasma of mouse at 100 mg/kg, po measured after 30 mins post dose; type: ADME, organism-based; details: read-out: BPR
[4] = Unbound drug concentration in dorsal root ganglion of mouse model of formalin-induced persistent pain at 30 mg/kg, po measured after 90 mins post dose; type: ADME, organism-based; details: in vivo, 1.5 h
Plasma [5] = test: Unbound plasma concentration in mouse at 30 mg/kg, po measured after 30 mins post dose; type: ADME, organism-based; details: in vivo, 0.5 h
Plasma [6] = test: Unbound plasma concentration in mouse model of nociceptive flexion reflex 10 mg/kg, ip measured after 60 mins post dose; type: ADME, organism-based; details: in vivo, 1 h
[7] = Plasma concentration in mouse at 100 mg/kg, po measured after 30 mins post dose; type: ADME, organism-based
[8] = Drug concentration in mouse brain at 100 mg/kg, po measured after 30 mins post dose; type: ADME, organism-based; details: read-out: Drug uptake
Plasma [9] = test: Unbound plasma concentration in mouse model of complete Freund's adjuvant-induced inflammatory pain at 10 mg/kg, po measured after 90 mins post dose; type: ADME, organism-based; details: in vivo, 1.5 h
[10] = Plasma concentration in mouse model of complete Freund's adjuvant-induced inflammatory pain at 60 mg/kg, po measured after 90 mins post dose; type: ADME, organism-based
Plasma [11] = test: Plasma concentration in mouse model of chronic constriction injury-induced cold hyperalgesia at 100 mg/kg, po dosed 30 mins before testing starting 5 weeks after surgery; type: ADME, organism-based; details: in vivo
Plasma [12] = test: Unbound plasma concentration in mouse model of nociceptive flexion reflex 30 mg/kg, ip measured after 60 mins post dose; type: ADME, organism-based; details: in vivo, 1 h
Plasma [13] = test: Unbound plasma concentration in mouse model of chronic constriction injury-induced cold hyperalgesia at 100 mg/kg, po dosed 30 mins before testing starting 5 weeks after surgery; type: ADME, organism-based; details: in vivo
[14] = Drug concentration in mouse trigeminal ganglion at 30 mg/kg, po measured after 30 mins post dose; type: ADME, organism-based; details: read-out: Drug uptake
[15] = Cmax in mouse at 30 mg/kg, po; type: ADME, organism-based; design: dose 30 mg/kg, route oral; details: in vivo
[16] = Drug concentration in mouse brain at 100 mg/kg, po measured after 90 mins post dose; type: ADME, organism-based; details: read-out: Drug uptake
[17] = Plasma concentration in mouse model of nociceptive flexion reflex 30 mg/kg, ip measured after 60 mins post dose; type: ADME, organism-based
[18] = Drug concentration in mouse dorsal root ganglion at 30 mg/kg, po measured after 30 mins post dose; type: ADME, organism-based; details: read-out: Drug uptake
[19] = Plasma concentration in mouse model of complete Freund's adjuvant-induced inflammatory pain at 30 mg/kg, po measured after 90 mins post dose; type: ADME, organism-based
[20] = Plasma concentration in mouse at 30 mg/kg, po measured after 30 mins post dose; type: ADME, organism-based
[21] = Plasma concentration in mouse model of formalin-induced persistent pain at 30 mg/kg, po measured after 90 mins post dose; type: ADME, organism-based
Plasma [22] = test: Unbound plasma concentration in mouse model of complete Freund's adjuvant-induced inflammatory pain at 60 mg/kg, po measured after 90 mins post dose; type: ADME, organism-based; details: in vivo, 1.5 h
[23] = Drug concentration in brain of mouse model of complete Freund's adjuvant-induced inflammatory pain at 30 mg/kg, po measured after 90 mins post dose; type: ADME, organism-based; details: read-out: Drug uptake
Plasma [24] = test: Unbound plasma concentration in mouse model of formalin-induced persistent pain at 30 mg/kg, po measured after 90 mins post dose; type: ADME, organism-based; details: in vivo, 1.5 h
Plasma [25] = test: Unbound plasma concentration in mouse model of complete Freund's adjuvant-induced inflammatory pain at 30 mg/kg, po measured after 90 mins post dose; type: ADME, organism-based; details: in vivo, 1.5 h
[26] = Drug concentration in brain of mouse model of complete Freund's adjuvant-induced inflammatory pain at 10 mg/kg, po measured after 90 mins post dose; type: ADME, organism-based; details: read-out: Drug uptake
[27] = Ratio of drug level in brain to plasma of mouse at 100 mg/kg, po measured after 90 mins post dose; type: ADME, organism-based; details: read-out: BPR
[28] = Half life in mouse at 30 mg/kg, po; type: ADME, organism-based; details: in vivo
[29] = Clearance in mouse at 2 mg/kg, iv; type: ADME, organism-based; details: in vivo
[30] = Drug concentration in brain of mouse model of complete Freund's adjuvant-induced inflammatory pain at 60 mg/kg, po measured after 90 mins post dose; type: ADME, organism-based; details: read-out: Drug uptake
[31] = Volume of distribution at steady state in mouse at 2 mg/kg, iv; type: ADME, organism-based; details: in vivo, read-out: Vdss
[32] = Oral bioavailability life in mouse at 30 mg/kg; type: ADME, organism-based; details: in vivo
[33] = Plasma concentration in mouse model of complete Freund's adjuvant-induced inflammatory pain at 10 mg/kg, po measured after 90 mins post dose; type: ADME, organism-based
[34] = Plasma concentration in mouse at 100 mg/kg, po measured after 90 mins post dose; type: ADME, organism-based
[35] = Plasma concentration in mouse model of nociceptive flexion reflex 10 mg/kg, ip measured after 60 mins post dose; type: ADME, organism-based
[36] = Unbound drug concentration in mouse dorsal root ganglion at 30 mg/kg, po measured after 30 mins post dose; type: ADME, organism-based; details: in vivo, 0.5 h
[37] = Drug concentration in dorsal root ganglion of mouse model of formalin-induced persistent pain at 30 mg/kg, po measured after 90 mins post dose; type: ADME, organism-based; details: read-out: Drug uptake
[38] = Drug concentration in trigeminal ganglion of mouse model of formalin-induced persistent pain at 30 mg/kg, po measured after 90 mins post dose; type: ADME, organism-based; details: read-out: Drug uptake
[39] = PAMPA, pH 5.5

Papp (physchem [1]): 101 nm/s
Papp (physchem [2]): 464 nm/s
SMILES: O=S(=O)(Nc1nccs1)c1cc(Cl)c(NC[C@H]2CC[C@@H](O)CC2)cc1F

Kp at 0.5 h [3]: 0.017
Drug uptake(free) [4]: 0.07 µM
Cp(f) (Plasma [5]): 0.3 µM
Cp(f) (Plasma [6]): 0.66 µM
concentration at 0.5 h [7]: 7.34 µM
Papp (physchem [1]): 377 nm/s
concentration at 0.5 h [8]: 0.12 µM
Cp(f) (Plasma [9]): 0.017 µM
concentration at 1.5 h [10]: 2.56 µM
Cp(f) (Plasma [12]): 1.9 µM
concentration at 0.5 h [14]: 5.8 µM
Cmax [15]: 37 µM
concentration at 1.5 h [16]: 0.042 µM
concentration at 1 h [17]: 82 µM
concentration at 0.5 h [18]: 1.1 µM
concentration at 1.5 h [19]: 1.13 µM
Papp (physchem [2]): 477 nm/s
concentration at 0.5 h [20]: 13 µM
concentration at 1.5 h [21]: 7.3 µM
Cp(f) (Plasma [22]): 0.059 µM
concentration at 1.5 h [23]: < 0.025 µM
Cp(f) (Plasma [24]): 0.17 µM
Cp(f) (Plasma [25]): 0.026 µM
concentration at 1.5 h [26]: < 0.025 µM
Kp at 1.5 h [27]: 0.012
half-life [28]: 3 h
clearance [29]: 0.78 L/h/kg
concentration at 1.5 h [30]: < 0.025 µM
Vd [31]: 0.6 L/kg
bioavailability [32]: 47%
concentration at 1.5 h [33]: 0.75 µM
concentration at 1.5 h [34]: 3.67 µM
concentration at 1 h [35]: 29 µM
Drug uptake(free) [36]: 0.11 µM
concentration at 1.5 h [37]: 0.66 µM
concentration at 1.5 h [38]: 5 µM
SMILES: O=S(=O)(Nc1nccs1)c1cc(Cl)c(NC[C@H]2CCCOC2)cc1F
concentration (Plasma [11]): 32 µM
Cp(f) (Plasma [13]): 0.74 µM

SMILES: O=S(=O)(Nc1nccs1)c1cc(Cl)c(NCC2CCCC3(C2)OCCO3)cc1F (stereo not given)
Papp (physchem [1]): 419 nm/s
Papp (physchem [2]): 451 nm/s

Papp (physchem [1]): 207 nm/s
Papp (physchem [2]): 546 nm/s
SMILES: O=S(=O)(Nc1nccs1)c1cc(Cl)c(NC[C@H]2CC[C@H](O)CC2)cc1F

SMILES: O=S(=O)(Nc1nccs1)c1cc(Cl)c(NCC2CCCCO2)cc1F (stereo not given)
Papp (physchem [1]): 610 nm/s
Papp (physchem [2]): 610 nm/s

Papp (physchem [1]): 677 nm/s
Papp [39]: Not Active
SMILES: CC(C)(C)[C@H]1OCCC[C@@H]1CNc1cc(F)c(S(=O)(=O)Nc2nccs2)cc1Cl (racemic)

Papp (physchem [1]): 439 nm/s
SMILES: CC(C)(C)[C@@H]1OCCC[C@@H]1CNc1cc(F)c(S(=O)(=O)Nc2nccs2)cc1Cl (racemic)

Papp (physchem [1]): 162 nm/s
Papp (physchem [2]): 216 nm/s
SMILES: O=S(=O)(Nc1nccs1)c1cc(Cl)c(NC[C@H]2CCC[C@H](O)C2)cc1F (racemic)

Papp (physchem [1]): 162 nm/s
Papp (physchem [2]): 216 nm/s
SMILES: O=S(=O)(Nc1nccs1)c1cc(Cl)c(NC[C@H]2CCC[C@@H](O)C2)cc1F (racemic)

Papp (physchem [1]): 735 nm/s
Papp (physchem [2]): 428 nm/s
SMILES: O=S(=O)(Nc1nccs1)c1cc(Cl)c(NC[C@H]2CCCO[C@@H]2c2ccccc2)cc1F (racemic)
